Data published in patent US20180289692A1, “TLR MODULATORS AND METHODS OF USE” (CELGENE CORPORATION, priority 2015, published 2018).
Oligonucleotides are written 5' to 3', each unit as a sugar letter and its base; * is a phosphorothioate linkage, no mark a phosphodiester; rarer units and linkages stand in square brackets, end groups in braces. Plain capitals give the bases only. d = 2'-deoxy (DNA); m = 2'-O-methyl

Columns and labels:
TLR9 = molecular target: T1, TLR9 (Homo sapiens, UniProt Q9NR96); assay: NF-κB reporter gene in recombinant TLR9-expressing HEK293 cells; format: cell-based; conditions: TLR9-expressing HEK293 cells, FIG. 16A
T1 construct: expressed in transfected cells; host or cells: TLR9 expressing HEK293 reporter cells with a human NF-κB reporter construct
T1 sequence (Q9NR96 26-1032): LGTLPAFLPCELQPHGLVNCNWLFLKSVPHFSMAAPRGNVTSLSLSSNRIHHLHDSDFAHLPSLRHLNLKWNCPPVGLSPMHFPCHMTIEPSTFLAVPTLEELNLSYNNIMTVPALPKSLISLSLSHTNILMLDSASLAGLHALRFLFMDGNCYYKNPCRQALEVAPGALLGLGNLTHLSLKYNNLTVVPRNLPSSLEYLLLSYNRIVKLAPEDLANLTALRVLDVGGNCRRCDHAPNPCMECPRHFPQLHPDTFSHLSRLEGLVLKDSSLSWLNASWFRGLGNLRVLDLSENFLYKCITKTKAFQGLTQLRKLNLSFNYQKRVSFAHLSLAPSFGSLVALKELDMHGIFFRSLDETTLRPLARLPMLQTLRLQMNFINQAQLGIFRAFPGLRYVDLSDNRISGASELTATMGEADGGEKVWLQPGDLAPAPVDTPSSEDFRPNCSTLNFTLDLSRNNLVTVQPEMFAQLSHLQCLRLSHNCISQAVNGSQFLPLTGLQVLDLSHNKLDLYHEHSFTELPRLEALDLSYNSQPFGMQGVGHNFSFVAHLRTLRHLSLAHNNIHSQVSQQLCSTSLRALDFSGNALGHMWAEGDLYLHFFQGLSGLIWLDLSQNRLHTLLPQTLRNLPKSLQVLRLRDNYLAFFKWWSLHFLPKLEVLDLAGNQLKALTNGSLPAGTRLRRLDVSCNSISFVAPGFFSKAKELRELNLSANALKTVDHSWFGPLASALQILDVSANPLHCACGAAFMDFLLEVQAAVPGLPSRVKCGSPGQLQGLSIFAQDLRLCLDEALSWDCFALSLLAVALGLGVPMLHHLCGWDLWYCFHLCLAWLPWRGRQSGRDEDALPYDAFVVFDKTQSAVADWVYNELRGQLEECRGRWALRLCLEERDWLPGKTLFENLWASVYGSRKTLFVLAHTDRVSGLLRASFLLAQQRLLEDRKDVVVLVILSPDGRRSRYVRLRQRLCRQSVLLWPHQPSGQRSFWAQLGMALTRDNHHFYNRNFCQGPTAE
Experimental: FIGS. 16A-B show results of experiments in which recombinant TLR-expressing HEK293 cells carrying an NF-κB reporter gene were incubated with COMPOUND(I), ODN150, ODN2006, or ODN7040 for 48 hours at the indicated concentrations.

human pDCs [1] = assay: Surface ICOS-L and PD-L1 expression in CCR6+CD123+ human pDCs by FACS; format: cell-based; conditions: for increase of COMPOUND (I) induced ICOS-L expression by HCQ: primary human pDCs; for PD-L1 protein induction: 24 hrs, FIG. 2B
Experimental: To evaluate surface ICOS-L, PD-L1 expression in the CCR6+CD123+ pDC cell subsets, PBMCs were incubated on ice in the presence of Fc-Block (BD Pharmingen) for 20 minutes, washed, and incubated with antibodies specific for surface molecules or isotype-matched control mAbs. APC-labeled anti-human ICOS-L mAb were purchased from BioLegend, PECY-7-labeled anti-human CCR6 mAb, FITC-labeled anti-human PD-L1 mAb and PerCP-Cy5.5 labeled anti-human CD123 mAb were purchased from BD Biosciences. The stained cells were then subjected to FACS (FACSCanto, BD Biosciences) using FACSDiva software. FACS analysis was performed using FlowJo software. Single, viable cells in the CCR6+CD123+ pDC gates were analyzed. The flow cytometric results are expressed as the percentage and MFI of ICOSL-, or PD-L1-expressing cells in each gate.
pDCs were isolated and ICOS-L expression was analyzed as described in Example 2.

[2] = test system: canonical NF-κB promoter reporter; assay: Mouse Raw Blue Reporter Cells, SEAP reporter driven by canonical NF-κB promoter (FIG. 11); format: cell-based; conditions: mouse macrophages, 24 hrs; for activation of canonical NF-κB reporter: SEAP, COMPOUND (I) up to 10 μM
Experimental: Mouse Raw Blue Reporter Cells (Invivogen), containing a secreted embryonic alkaline phosphatase (SEAP) reporter gene driven by canonical NF-κB promoter, were plated in 96-well plates at 50,000 cells/well in DMEM Media supplemented with 10% FBS, 2 mM L-glutamine, 1% Pen/Strep, […] Normacin. […] The supernatant was harvested and tested for SEAP production by measuring OD at 630 nm.

human PBMCs [3] = assay: Cytokine production by human PBMCs treated with ODNs, MagPix Multi-Plex; format: cell-based; conditions: for IFN-γ / IL-1β / IL-6 / IL-10 / IL-12p40 / IP10 / TNF-α: human PBMC, 24 hrs
Experimental: PBMC from 3 donors were isolated from Buffy Coat (Blood Center of NY). The cells were washed with PBS and re-suspended in RPMI-1640 Media with 5% Human AB Serum, 1% Pen/Strep and 2 mM L-glutamine. The cells were then plated in 96-well plates at 250,000 cells/well. […] After 24 hrs, the supernatant was harvested and tested for cytokine production using MagPix Multi-Plex Technology. The following cytokines were tested: IL-6, IL-10, IL-12p40, IFN-α, IFN-γ, IP-10, IL-1β and TNF-α.

human PBMCs [4] = assay: IL-1β secretion from human PBMCs by ELISA (inflammasome activation); format: cell-based; conditions: 24 hours, FIG. 15
human pDCs [5] = assay: Intracellular IL-10, TGF-β1 and IDO expression in CCR6+CD123+ human pDCs by FACS; format: cell-based; conditions: 24 hrs, FIG. 2A
Excerpt: To evaluate intracellular IL-10, TGFβ 1 and IDO expression in human pDCs, the cells were first stained with PECY-7-labeled anti-human CCR6 mAb (BD Biosciences), PerCP-Cy5.5 labeled anti-human CD123 mAb (BD Biosciences). Stained cells were then fixed and permeabilized using a Cytofix/Cytoperm kit (BD Biosciences) according to the manufacturer's instructions and stained with PE-labeled anti-human IDO (Biolegend), APC-labeled anti-human IL-10 mAb and FITC-labeled anti-human TGF-β1 (BD Biosciences), or isotype-matched control mAbs. The stained cells were acquired by FACSCanto using the FACSDiva software. FACS analysis was performed using FlowJo software. Single, viable cells in the CCR6+CD123+ pDC gates were analyzed. The flow cytometric results are expressed as the percentage and MFI of IL-10-, TGF-β1- or IDO-expressing cells in each gate. Results are expressed as the mean±SEM of cells quantified.
IL10 was alternatively measured in cellular supernatants by ELISA using standard protocols.

[6] = test system: canonical NF-κB promoter reporter; assay: Canonical NF-κB promoter reporter construct in RAW264.7 macrophage cells (FIG. 10); format: cell-based, mouse; conditions: 24 hrs
Experimental: Mouse RAW264.7 macrophage cells containing a reporter construct driven by a canonical NF-κB promoter were plated in 96-well plates at 50,000 cells/well. […] The supernatant was harvested and tested for optical density.

mouse macrophages = assay: TNFα and IL-10 production in mouse macrophages (Raw Blue cells), MagPix; format: cell-based; conditions: 24 hrs
Experimental: Mouse Raw Blue Reporter Cells (Invivogen) were plated in 96-well plates at 50,000 cells/well in DMEM Media supplemented with 10% FBS, 2 mM L-glutamine, 1% Pen/Strep, […] Normacin. […] The supernatant was harvested and tested for TNFα and IL-10 production using MagPix Multi-Plex technology.

Molecule	activation of canonical NF-κB reporter [2]	IFN-γ (human PBMCs [3]; high-dose ODN 10 μM)	IL-1β (human PBMCs [3]; high-dose ODN 10 μM)	IL-6 (human PBMCs [3]; high-dose ODN 10 μM)	IL-10 (human PBMCs [3]; high-dose ODN 10 μM)	IL-12p40 (human PBMCs [3]; high-dose ODN 10 μM)	IP10 (human PBMCs [3]; high-dose ODN 10 μM)	TNF-α (human PBMCs [3]; high-dose ODN 10 μM)	IFN-γ (human PBMCs [3]; low-dose ODN 0.1 μM)	IL-1β (human PBMCs [3]; low-dose ODN 0.1 μM)	IL-6 (human PBMCs [3]; low-dose ODN 0.1 μM)	IL-10 (human PBMCs [3]; low-dose ODN 0.1 μM)	IL-12p40 (human PBMCs [3]; low-dose ODN 0.1 μM)	IP10 (human PBMCs [3]; low-dose ODN 0.1 μM)	TNF-α (human PBMCs [3]; low-dose ODN 0.1 μM)	TGF-β1 protein induction (human pDCs [5])	PD-L1 protein induction (human pDCs [1]; human pDCs)	also measured
CCN(CCO)CCCC(C)Nc1ccnc2cc(Cl)ccc12 (stereo not shown) [HCQ, hydroxychloroquine]																		effect on COMPOUND (I) activity on NF-κB reporter gene (TLR9): inhibited; increase of COMPOUND (I) induced ICOS-L expression by HCQ (human pDCs [1]; HCQ 10 μM + COMPOUND (I) 1 μM, FIG. 6A): 7.3 fold; increase of COMPOUND (I) induced ICOS-L expression by HCQ (human pDCs [1]; HCQ 10 μM + COMPOUND (I) 1 μM, FIG. 6B): 2.0 fold; increase of COMPOUND (I) induced ICOS-L expression by HCQ (human pDCs [1]; HCQ 10 μM + COMPOUND (I) 10 μM, FIG. 6A): 7.1 fold; increase of COMPOUND (I) induced ICOS-L expression by HCQ (human pDCs [1]; HCQ 10 μM + COMPOUND (I) 10 μM, FIG. 6B): 1.9 fold; ICOS-L expression, agent alone (human pDCs [1]; human pDCs, COMPOUND (I) 1 μM and 10 μM by itself, HCQ 10 μM alone): did not induce measurable levels
ODN150C: 5′-G*G*A*ACAGTTAGTCCATa*G*G*C-3′, PO except * = PS; control lacking CG-dinucleotide sequences (DNA GGAACAGTTAGTCCATGGC; listed as DNA, chemistry not fully specified)	did not activate	0.1 pg/mL	0.3 pg/mL	1.4 fold change	1 fold change	0 pg/mL	1.5 fold change	1.4 fold change	0.1 pg/mL	0.2 pg/mL	1.2 fold change	1 fold change	0 pg/mL	1 fold change	1.2 fold change			
ODN301C: 5′-GTAGCCCCATCACCCAGCAGC-3′, fully PS, GC-containing (DNA dG*dT*dA*dG*dC*dC*dC*dC*dA*dT*dC*dA*dC*dC*dC*dA*dG*dC*dA*dG*dC)		0 pg/mL	1.9 pg/mL	3.3 fold change	1 fold change	0.8 pg/mL	0.25 fold change	2.8 fold change	0 pg/mL	0.1 pg/mL	1.3 fold change	1 fold change	0 pg/mL	1.1 fold change	1.1 fold change	can induce	can induce	IL-1β induction (human PBMCs [4]): induce; IFNα secretion from PBMCs (human PBMCs [3]; any tested concentration between 0.01 μM and 10 μM, FIG. 25): not found to induce
ODN302: 5′-GTCGCTCTTCTCCTCCGCCAG-3′, fully PS; scrambled (non-SMAD7 AON) control sequence with two CG sequences (DNA dG*dT*dC*dG*dC*dT*dC*dT*dT*dC*dT*dC*dC*dT*dC*dC*dG*dC*dC*dA*dG)		9.7 pg/mL	3.9 pg/mL	41 fold change	1.5 fold change	5.2 pg/mL	4.4 fold change	9.3 fold change	1.5 pg/mL	0.2 pg/mL	19 fold change	1.5 fold change	0.7 pg/mL	13.9 fold change	2.4 fold change	can induce	can induce	activation of the NF-κB construct ([6]; 0.1-100 μM): Moderate activation; ODN concentration at which activation of the NF-κB construct was observed [6]: about 1 μM
ODN1826	potent activator																	concentration from which the NF-κB reporter is activated [2]: ≤ 0.01 µM; TNFα protein expression (mouse macrophages; FIG. 12, COMPOUND (I) up to 10 μM): induce; IL-10 protein expression (mouse macrophages; FIG. 13, COMPOUND (I) up to 10 μM): induce
ODN7040C: 5′-CTGCCAAGTTCACCTGCA*C*C*-3′, PO; * = 2′OMe; control lacking CG-dinucleotide sequences (DNA dCdTdGdCdCdAdAdGdTdTdCdAdCdCdTdGdCmAmCmC)	did not activate	0.2 pg/mL	0.5 pg/mL	2.1 fold change	1 fold change	0.1 pg/mL	1.4 fold change	1.4 fold change	0.2 pg/mL	0.6 pg/mL	1.2 fold change	1 fold change	0.1 pg/mL	1.1 fold change	1.1 fold change			
